Tests used:
[1] = system: 4-strain ± S9; experiment: Ames test
[2] = system: Wistar rats; experiment: qEEG telemetry recordings; type: in vivo; settings: rat
Description: These effects were most pronounced between 30 and 120 min post treatment (Figure 11C).
Data are expressed as mean ± SEM and were analyzed by one- and two-way ANOVA followed by Dunnett’s Multiple Comparisons tests (*p < 0.05, **p < 0.01, ***p < 0.001 versus vehicle).
Wistar rats using a telemetry system (Data Sciences International DSI, USA).[20] Telemetric transmitters (F40-EET, Data Sciences International DSI, USA) were implanted intraperitoneally into male Wistar rats. EEG electrodes were placed supradurally above the hippocampus and two more electrodes were implanted into the neck muscle in order to measure the electromyography (EMG) signal required for differentiation between different vigilance states. Telemetric EEG recordings were performed during the light phase in the rats’ home cage environment. EEG activity was sampled at 500 Hz with a hardware filter cutoff of 50 Hz. Data were recorded continuously for 24 h, but only 1 h before compound treatment (baseline), the first 4 h after compound treatment plus an additional hour (+24 h time point) have been analyzed. Effects of treatment with 19d (1, 10 mg/kg, p.o., n = 14, applied 2 h after starting the recording) were determined on motor activity, body temperature, vigilance states and EEG power spectra using the EEG analysis software NeuroScore (Data Sciences International DSI, USA). The rats were tested in a crossover study design with a two-day washout period between two treatments.[20]

[3] = system: C57BL/6JRj mice; experiment: 40 Hz ASSR, MK-801 induced deficit; type: in vivo; settings: mouse
Text: We have also employed here event-related potentials (ERPs) and auditory-evoked oscillations, which serve as critical translational biomarkers, to assess the impact of our investigational drug on sensory processing and cognitive functions, providing valuable data on its potential efficacy in treating disorders like schizophrenia. Detailed description of the methodology, setup specifications and recording procedure and analysis of the 40 Hz auditory steady-state response (ASSR) protocol can be found in Schuelert et al.[27] […] Reduced entrainment of gamma oscillation reflects abnormalities in basic sensory registration and processing but is also associated with impaired higher cognitive functions.[32] ASSR can also be reliably impaired preclinically by different NMDA receptor antagonists.[33],[34] […] Abnormalities associated with the filtering or “gating” of sensory information are among the most consistent findings in schizophrenia research.[35] N100 gating deficits also correlated with negative-cognitive deficits dimensions of schizophrenia[36] and can be modeled preclinically with NMDA receptor antagonists.[37]19d reversed N1 sensory gating deficit induced by MK-801 with the highest dose of 10 mg/kg (Figure 12B). Mean plasma exposures in satellite mice after subcutaneous administration of 19d at 0.8, 4, and 10 mg/kg were 187, 1207, and 2490 nM, respectively.
The mGlu2/3 selective agonist LY379268 was used here as a positive control, applied also s.c. at 3 mg/kg dose. […] Data are shown as mean ± SEM (n = 13–19 for each treatment group). *P < 0.05, **P < 0.01, ***P < 0.005 compared with vehicle; #P < 0.05, ##P < 0.01 compared with MK-801. […]
Mice were placed in a plexiglass cage in an attenuated sound box and allowed to adapt to their environment for 20 min before subcutaneous administration of VU6024578 0.8, 4, and 10 mg/kg or vehicle (20% HP-β-CD in water). […] An infrared sensor on the Neurologger recorded the infrared trigger signals and trigger signals were saved in an individual trigger channel. […]

[4] = target: T1, CCK2 (CCKB) (Homo sapiens, UniProt P32239); experiment: Eurofins radioligand binding panel; settings: agonist radioligand
T1 construct: Eurofins (panel run as a service)
T1 sequence (P32239 whole entry): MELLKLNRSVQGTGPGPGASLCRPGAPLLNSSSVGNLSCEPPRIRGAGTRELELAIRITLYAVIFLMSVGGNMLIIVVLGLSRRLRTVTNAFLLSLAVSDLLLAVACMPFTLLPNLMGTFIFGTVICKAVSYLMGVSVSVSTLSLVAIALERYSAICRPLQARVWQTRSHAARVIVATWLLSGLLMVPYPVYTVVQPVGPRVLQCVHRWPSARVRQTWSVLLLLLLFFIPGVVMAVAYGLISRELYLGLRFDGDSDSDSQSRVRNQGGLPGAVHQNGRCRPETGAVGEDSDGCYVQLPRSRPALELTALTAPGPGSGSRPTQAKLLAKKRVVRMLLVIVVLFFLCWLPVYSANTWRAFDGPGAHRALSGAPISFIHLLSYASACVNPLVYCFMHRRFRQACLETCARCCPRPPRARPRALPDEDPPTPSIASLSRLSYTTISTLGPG
Text: Table S1. Eurofins Lead Profiling Screen Data
This is a radioligand binding panel of 80 targets including GPCRs, ion channels, transporters and nuclear hormones. Biochemical assay results are presented as the percent inhibition of specific […]
Results showing an inhibition or stimulation higher than 50% are considered to represent significant effect and are highlighted […]
Target / Protein Species % Inhibition at 10 […]
CCK2 (CCKB) (agonist radioligand) human -4

Cn1nc(-c2ccnn2C)cc1CNC(=O)c1cc(-c2ccco2)ccc1Cl [Compound 19d, 2-Chloro-N-((1,2′-dimethyl-1H,2’H-[3,3′-bipyrazol]-5-yl)methyl)-5-(furan-2-yl)benzamide]
Ames test result [1]: negative | body temperature ([2]; 10 mg/kg p.o.): no measurable changes | EEG power spectra ([2]; 10 mg/kg p.o., 60 to 240 min post treatment): consistent reduction of delta, alpha and beta power | motor activity ([2]; 10 mg/kg p.o., maximum within first 120 min): significantly increased | time spent in NREM and REM sleep ([2]; higher dose (10 mg/kg p.o.)): reduction | time spent in active and quiet wake states ([2]; higher dose (10 mg/kg p.o.)): significant increase | reversal of MK-801 deficit in 40 Hz ASSR intertrial coherence (PFC) ([3]; 0.8 mg/kg s.c.): no significant effect | reversal of MK-801 deficit in 40 Hz ASSR intertrial coherence (PFC) ([3]; 4 mg/kg s.c.): complete reversal | reversal of MK-801 deficit in 40 Hz ASSR intertrial coherence (PFC) ([3]; 10 mg/kg s.c.): complete reversal | inhibition at 10 µM [4]: -4%

Source: PMC11684029, “Discovery of VU6024578/BI02982816: An mGlu1 Positive Allosteric Modulator with Efficacy in Preclinical Antipsychotic and Cognition Models” (Journal of Medicinal Chemistry, 2024)
